In patent US8173638B2 (Boehringer Ingelheim International GmbH, priority 2006, dated 2012):

Biological target: T1, human CB2R (Homo sapiens, UniProt P34972)
T1 construct: host or cells: CHO cells
Assay: CB2R mediated modulation of cAMP synthesis
Assay type: cell-based
Conditions: found through the use of the described assays (CB2 agonists); qualitative statement
Protocol: B. CB2R Mediated Modulation of cAMP Synthesis:
CHO cells expressing human CB2R (Euroscreen) were plated at a density of 5000 cells per well in 384 well plates and incubated overnight at 37° C. After removing the media, the cells were treated with test compounds diluted in stimulation buffer containing 1 mM IBMX, 0.25% BSA and 10 uM Forskolin. The assay was incubated for 30 minutes at 37° C. Cells were lysed and the cAMP concentration was measured using DiscoverX-XS cAMP kit, following the manufacturer's protocol. In this setting, agonists will decrease forskolin induced production of cAMP while inverse agonists will further increase forskolin induced production of cAMP. EC50 of agonists were calculated as follows. The maximal amount of cAMP produced by forskolin compared to the level of cAMP inhibited by 1 uM CP55940 is defined as 100%. […] Data was analyzed using a four-parameter logistic model. (Model 205 of XLfit 4.0).

T1 sequence (P34972 whole entry): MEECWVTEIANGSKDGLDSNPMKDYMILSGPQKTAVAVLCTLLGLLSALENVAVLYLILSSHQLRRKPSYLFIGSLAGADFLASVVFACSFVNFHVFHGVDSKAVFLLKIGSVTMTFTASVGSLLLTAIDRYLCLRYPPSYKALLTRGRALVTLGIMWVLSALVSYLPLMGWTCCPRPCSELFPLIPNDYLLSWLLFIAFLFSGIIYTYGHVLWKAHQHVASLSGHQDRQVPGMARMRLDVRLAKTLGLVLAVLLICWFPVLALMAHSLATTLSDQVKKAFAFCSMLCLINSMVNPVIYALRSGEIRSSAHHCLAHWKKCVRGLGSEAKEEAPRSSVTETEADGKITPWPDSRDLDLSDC

| Compound | agonistic activity |
| --- | --- |
| CCCCc1ccc(NC(=O)N2CCCN(C(=O)C3CCCCC3)CC2)cc1 | agonistic activity |
| CCCCc1ccc(NC(=O)N2CCCN(C(=O)CC3CCCC3)CC2)cc1 | agonistic activity |
| O=C(Nc1ccc(C(F)(F)F)cc1)N1CCCN(C(=O)c2ccc(C(F)(F)F)cc2)CC1 | agonistic activity |
| Cc1onc(NC(=O)N2CCCN(C(=O)C3CCOCC3)CC2)c1C | agonistic activity |
| CC(C)(C)c1cc(NC(=O)N2CCCN(C(=O)Nc3ccccc3)CC2)no1 | agonistic activity |
| CC(C)(C)c1cc(NC(=O)N2CCCN(C(=O)NC3CCOCC3)CC2)no1 | agonistic activity |
| CC(C)(C)c1cc(NC(=O)N2CCCN(C(=O)NC3CCCC3)CC2)no1 | agonistic activity |
| CC(C)(C)c1cc(NC(=O)N2CCCN(C(=O)NC3CCCCC3)CC2)no1 | agonistic activity |
| CC(C)(C)c1cc(NC(=O)N2CCCN(C(=O)N3CCS(=O)(=O)CC3)CC2)on1 [4-(1,1-Dioxo-1λ^6-thiomorpholine-4-carbonyl)-[1,4]diazepane-1-carboxylic acid (3-tert-butyl-isoxazol-5-yl)-amide] | agonistic activity |
| CC(C)(C)c1cccc(NC(=O)N2CCCN(C(=O)N3CCS(=O)(=O)CC3)CC2)c1 [4-(1,1-Dioxo-1λ^6-thiomorpholine-4-carbonyl)-[1,4]diazepane-1-carboxylic acid (3-tert-butyl-phenyl)-amide] | agonistic activity |
| O=C(Nc1nc2c(s1)CCCC2)N1CCCN(C(=O)N2CCS(=O)(=O)CC2)CC1 [4-(1,1-Dioxo-1λ^6-thiomorpholine-4-carbonyl)-[1,4]diazepane-1-carboxylic acid (4,5,6,7-tetrahydro-benzothiazol-2-yl)-amide] | agonistic activity |
| CCC(C)c1ccc(NC(=O)N2CCCN(C(=O)N3CCS(=O)(=O)CC3)CC2)cc1 (stereo not shown) [4-(1,1-Dioxo-1λ^6-thiomorpholine-4-carbonyl)-[1,4]diazepane-1-carboxylic acid (4-sec-butyl-phenyl)-amide] | agonistic activity |
| CC(C)(C)c1ccc(NC(=O)N2CCCN(C(=O)N3CCS(=O)(=O)CC3)CC2)cc1 [4-(1,1-Dioxo-1λ^6-thiomorpholine-4-carbonyl)-[1,4]diazepane-1-carboxylic acid (4-tert-butyl-phenyl)-amide] | agonistic activity |
| CC(C)c1cnc(NC(=O)N2CCCN(C(=O)N3CCS(=O)(=O)CC3)CC2)s1 [4-(1,1-Dioxo-1λ^6-thiomorpholine-4-carbonyl)-[1,4]diazepane-1-carboxylic acid (5-isopropyl-thiazol-2-yl)-amide] | agonistic activity |
| CC(C)(C)c1cnc(NC(=O)N2CCCN(C(=O)N3CCS(=O)(=O)CC3)CC2)s1 [4-(1,1-Dioxo-1λ^6-thiomorpholine-4-carbonyl)-[1,4]diazepane-1-carboxylic acid (5-tert-butyl-thiazol-2-yl)-amide] | agonistic activity |
| CC(c1ccc(NC(=O)N2CCCN(C(=O)N3CCS(=O)(=O)CC3)CC2)cc1)C(F)(F)F (stereo not shown) [4-(1,1-Dioxo-1λ^6-thiomorpholine-4-carbonyl)-[1,4]diazepane-1-carboxylic acid [4-(2,2,2-trifluoro-1-methyl-ethyl)-phenyl]-amide] | agonistic activity |
| CC(C)(C)c1cc(NC(=O)N2CCCN(C(=O)C3CCS(=O)(=O)CC3)CC2)no1 [4-(1,1-Dioxo-hexahydro-1λ^6-thiopyran-4-carbonyl)-[1,4]diazepane-1-carboxylic acid (5-tert-butyl-isoxazol-3-yl)-amide] | agonistic activity |
| CC(=O)N1CCC(C(=O)N2CCCN(C(=O)Nc3cc(C(C)(C)C)on3)CC2)CC1 [4-(1-Acetyl-piperidine-4-carbonyl)-[1,4]diazepane-1-carboxylic acid (5-tert-butyl-isoxazol-3-yl)-amide] | agonistic activity |
| CC(C)(C)c1cc(NC(=O)N2CCCN(C(=O)C3CCCN(S(C)(=O)=O)C3)CC2)no1 (stereo not shown) [4-(1-Methanesulfonyl-piperidine-3-carbonyl)-[1,4]diazepane-1-carboxylic acid (5-tert-butyl-isoxazol-3-yl)-amide] | agonistic activity |
| CC(C)(C)c1cc(NC(=O)N2CCCN(C(=O)C3CCN(S(C)(=O)=O)CC3)CC2)no1 [4-(1-Methanesulfonyl-piperidine-4-carbonyl)-[1,4]diazepane-1-carboxylic acid (5-tert-butyl-isoxazol-3-yl)-amide] | agonistic activity |

| Compound | agonistic activity |
| --- | --- |
| CC1(C(=O)N2CCCN(C(=O)Nc3cc(C(C)(C)C)on3)CC2)CCCCC1 [4-(1-Methyl-cyclohexanecarbonyl)-[1,4]diazepane-1-carboxylic acid (5-tert-butyl-isoxazol-3-yl)-amide] | agonistic activity |
| CC(C)(C)c1cc(NC(=O)N2CCCN(C(=O)N3CC[S+]([O-])CC3)CC2)no1 [4-(1-Oxo-1λ^4-thiomorpholine-4-carbonyl)-[1,4]diazepane-1-carboxylic acid (5-tert-butyl-isoxazol-3-yl)-amide] | agonistic activity |
| CC(C)(C)C(=O)N1CCCN(C(=O)Nc2ccc(C(C)(C)C)cc2)CC1 [4-(2,2-Dimethyl-propionyl)-[1,4]diazepane-1-carboxylic acid (4-tert-butyl-phenyl)-amide] | agonistic activity |
| CC(C)(C)C(=O)N1CCCN(C(=O)Nc2cc(C(C)(C)C)on2)CC1 [4-(2,2-Dimethyl-propionyl)-[1,4]diazepane-1-carboxylic acid (5-tert-butyl-isoxazol-3-yl)-amide] | agonistic activity |
| CC(C)(C)C(=O)N1CCCN(C(=O)Nc2ccc3ccccc3c2)CC1 [4-(2,2-Dimethyl-propionyl)-[1,4]diazepane-1-carboxylic acid naphthalen-2-ylamide] | agonistic activity |
| O=C(Nc1ccc2ccccc2c1)N1CCCN(C(=O)c2cc(Cl)ccc2Cl)CC1 [4-(2,5-Dichloro-benzoyl)-[1,4]diazepane-1-carboxylic acid naphthalen-2-ylamide] | agonistic activity |
| O=C(CC1CCCCC1)N1CCCN(C(=O)Nc2ccc3ccccc3c2)CC1 [4-(2-Cyclohexyl-acetyl)-[1,4]diazepane-1-carboxylic acid (2-naphthyl)-amide] | agonistic activity |
| CCCCc1ccc(NC(=O)N2CCCN(C(=O)CC3CCCCC3)CC2)cc1 [4-(2-Cyclohexyl-acetyl)-[1,4]diazepane-1-carboxylic acid (4-butyl-phenyl)-amide] | agonistic activity |
| CCc1ccc(NC(=O)N2CCCN(C(=O)CC3CCCCC3)CC2)cc1 [4-(2-Cyclohexyl-acetyl)-[1,4]diazepane-1-carboxylic acid (4-ethyl-phenyl)-amide] | agonistic activity |
| CC(C)c1ccc(NC(=O)N2CCCN(C(=O)CC3CCCCC3)CC2)cc1 [4-(2-Cyclohexyl-acetyl)-[1,4]diazepane-1-carboxylic acid (4-isopropyl-phenyl)-amide] | agonistic activity |
| CC(C)(C)c1ccc(NC(=O)N2CCCN(C(=O)CC3CCCCC3)CC2)cc1 [4-(2-Cyclohexyl-acetyl)-[1,4]diazepane-1-carboxylic acid (4-tert-butyl-phenyl)-amide] | agonistic activity |
| CC(C)c1ccc(NC(=S)N2CCCN(C(=O)CC3CCCC3)CC2)cc1 [4-(2-Cyclopentyl-acetyl)-[1,4]diazepane-1-carbothioic acid (4-isopropyl-phenyl)-amide] | agonistic activity |
| CC(=O)N1CCc2ccc(NC(=O)N3CCCN(C(=O)CC4CCCC4)CC3)cc21 [4-(2-Cyclopentyl-acetyl)-[1,4]diazepane-1-carboxylic acid (1-acetyl-2,3-dihydro-1H-indol-6-yl)-amide] | agonistic activity |
| O=C(CC1CCCC1)N1CCCN(C(=O)Nc2ccc3c(c2)OC(F)(F)O3)CC1 [4-(2-Cyclopentyl-acetyl)-[1,4]diazepane-1-carboxylic acid (2,2-difluoro-benzo[1,3]dioxol-5-yl)-amide] | agonistic activity |
| O=C(CC1CCCC1)N1CCCN(C(=O)Nc2ccc(Cl)cc2Cl)CC1 [4-(2-Cyclopentyl-acetyl)-[1,4]diazepane-1-carboxylic acid (2,4-dichloro-phenyl)-amide] | agonistic activity |
| O=C(CC1CCCC1)N1CCCN(C(=O)Nc2cc(Cl)ccc2Cl)CC1 [4-(2-Cyclopentyl-acetyl)-[1,4]diazepane-1-carboxylic acid (2,5-dichloro-phenyl)-amide] | agonistic activity |
| O=C(CC1CCCC1)N1CCCN(C(=O)Nc2ccc3ccccc3c2)CC1 [4-(2-Cyclopentyl-acetyl)-[1,4]diazepane-1-carboxylic acid (2-naphthyl)-amide] | agonistic activity |
| O=C(CC1CCCC1)N1CCCN(C(=O)Nc2ccc(Cl)c(Cl)c2)CC1 [4-(2-Cyclopentyl-acetyl)-[1,4]diazepane-1-carboxylic acid (3,4-dichloro-phenyl)-amide] | agonistic activity |
| O=C(CC1CCCC1)N1CCCN(C(=O)Nc2cc(Cl)cc(Cl)c2)CC1 [4-(2-Cyclopentyl-acetyl)-[1,4]diazepane-1-carboxylic acid (3,5-dichloro-phenyl)-amide] | agonistic activity |
| O=C(CC1CCCC1)N1CCCN(C(=O)Nc2cccc(C(F)(F)F)c2)CC1 [4-(2-Cyclopentyl-acetyl)-[1,4]diazepane-1-carboxylic acid (3-trifluoromethyl-phenyl)-amide] | agonistic activity |
